Test results published in ChEMBL document CHEMBL4052667 (Bioorg Med Chem, 2017).

What was measured:
[1] = biological target: Poly [ADP-ribose] polymerase 1 (Homo sapiens, UniProt P09874); test: Inhibition of recombinant full length human N-terminal GST-tagged PARP1 expressed in baculovirus infected Sf9 cells using biotinylated substrate after 1 hr by UV/Vis spectrophotometric analysis
[2] = biological target: Poly [ADP-ribose] polymerase 2 (Homo sapiens, UniProt Q9UGN5); test: Inhibition of recombinant human N-terminal GST-tagged PARP2 (2 to 583 residues) expressed in baculovirus infected Sf9 cells using biotinylated substrate after 1 hr by UV/Vis spectrophotometric analysis
Sequence of Poly [ADP-ribose] polymerase 2 (Q9UGN5 whole entry, the tested form may be a part): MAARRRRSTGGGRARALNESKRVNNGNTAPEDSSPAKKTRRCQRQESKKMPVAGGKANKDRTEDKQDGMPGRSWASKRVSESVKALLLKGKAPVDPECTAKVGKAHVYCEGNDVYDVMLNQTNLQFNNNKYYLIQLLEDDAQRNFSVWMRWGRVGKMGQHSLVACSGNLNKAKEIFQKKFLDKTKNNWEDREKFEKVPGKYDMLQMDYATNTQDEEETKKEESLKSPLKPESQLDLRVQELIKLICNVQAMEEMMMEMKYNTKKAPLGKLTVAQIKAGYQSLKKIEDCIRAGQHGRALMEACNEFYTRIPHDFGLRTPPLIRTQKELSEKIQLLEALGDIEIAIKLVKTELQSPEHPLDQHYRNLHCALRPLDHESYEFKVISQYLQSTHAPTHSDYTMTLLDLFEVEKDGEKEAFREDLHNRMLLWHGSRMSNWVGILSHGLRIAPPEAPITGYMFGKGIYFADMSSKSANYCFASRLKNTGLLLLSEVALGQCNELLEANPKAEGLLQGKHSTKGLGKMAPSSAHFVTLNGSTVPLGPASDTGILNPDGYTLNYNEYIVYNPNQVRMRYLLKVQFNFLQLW

[3] = biological target: Histone deacetylase 1 (Homo sapiens, UniProt Q13547); test: Inhibition of HDAC1 (unknown origin) using acetylated peptide substrate preincubated for 15 mins followed by substrate addition measured after 60 mins by fluorescence analysis
Sequence of Histone deacetylase 1 (Q13547 whole entry): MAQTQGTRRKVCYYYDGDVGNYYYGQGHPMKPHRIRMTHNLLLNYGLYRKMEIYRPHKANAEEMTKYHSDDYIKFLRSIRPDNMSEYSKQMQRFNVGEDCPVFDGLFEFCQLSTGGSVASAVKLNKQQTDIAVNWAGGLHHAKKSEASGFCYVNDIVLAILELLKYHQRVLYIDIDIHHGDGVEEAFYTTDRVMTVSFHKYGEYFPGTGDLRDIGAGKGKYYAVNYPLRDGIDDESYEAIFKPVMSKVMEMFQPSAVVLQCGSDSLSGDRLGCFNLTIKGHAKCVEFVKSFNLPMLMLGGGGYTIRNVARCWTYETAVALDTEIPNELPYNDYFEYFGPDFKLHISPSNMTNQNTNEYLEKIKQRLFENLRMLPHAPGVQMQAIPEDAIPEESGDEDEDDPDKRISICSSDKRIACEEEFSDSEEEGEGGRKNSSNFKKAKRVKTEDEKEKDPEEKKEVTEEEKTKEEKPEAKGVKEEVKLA

[4] = biological target: T1, Protein deacetylase HDAC6 (Homo sapiens, UniProt Q9UBN7); test: Inhibition of HDAC6 (unknown origin) using acetylated peptide substrate preincubated for 15 mins followed by substrate addition measured after 60 mins by fluorescence analysis
T1 sequence (Q9UBN7 whole entry): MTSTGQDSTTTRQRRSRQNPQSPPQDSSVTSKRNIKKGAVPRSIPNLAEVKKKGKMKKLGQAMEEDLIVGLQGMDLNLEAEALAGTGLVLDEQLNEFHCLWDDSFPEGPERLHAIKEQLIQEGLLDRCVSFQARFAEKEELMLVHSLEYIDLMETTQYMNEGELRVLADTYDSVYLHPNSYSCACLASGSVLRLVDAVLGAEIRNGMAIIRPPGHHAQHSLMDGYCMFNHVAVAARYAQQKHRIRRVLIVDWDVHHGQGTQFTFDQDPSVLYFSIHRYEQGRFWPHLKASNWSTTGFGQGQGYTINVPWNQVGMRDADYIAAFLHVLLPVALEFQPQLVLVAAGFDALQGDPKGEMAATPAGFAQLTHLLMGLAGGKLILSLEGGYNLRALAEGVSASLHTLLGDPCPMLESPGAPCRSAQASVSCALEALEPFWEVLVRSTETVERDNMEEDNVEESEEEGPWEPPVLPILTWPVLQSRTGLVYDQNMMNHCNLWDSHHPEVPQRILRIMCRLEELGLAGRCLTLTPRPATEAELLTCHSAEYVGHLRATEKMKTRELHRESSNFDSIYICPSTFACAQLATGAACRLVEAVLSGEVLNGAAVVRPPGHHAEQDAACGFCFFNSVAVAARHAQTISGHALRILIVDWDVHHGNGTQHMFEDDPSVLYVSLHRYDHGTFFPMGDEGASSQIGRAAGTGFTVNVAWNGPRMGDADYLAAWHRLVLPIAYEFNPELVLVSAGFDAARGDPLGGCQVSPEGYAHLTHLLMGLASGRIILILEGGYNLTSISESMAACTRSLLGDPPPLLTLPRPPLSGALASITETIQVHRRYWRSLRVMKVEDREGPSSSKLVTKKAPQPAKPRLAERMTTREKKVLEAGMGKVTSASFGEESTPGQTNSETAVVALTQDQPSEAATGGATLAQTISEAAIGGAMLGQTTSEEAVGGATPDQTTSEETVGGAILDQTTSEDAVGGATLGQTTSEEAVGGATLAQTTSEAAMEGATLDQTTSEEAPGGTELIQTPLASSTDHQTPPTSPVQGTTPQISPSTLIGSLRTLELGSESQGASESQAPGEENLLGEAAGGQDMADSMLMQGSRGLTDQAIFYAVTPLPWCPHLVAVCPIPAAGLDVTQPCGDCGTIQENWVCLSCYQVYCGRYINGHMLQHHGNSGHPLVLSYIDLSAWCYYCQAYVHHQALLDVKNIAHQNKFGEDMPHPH

[5] = test system: T47D; test: Antiproliferative activity against human T47D cells after 72 hrs by MTT assay; type: functional, cell-based
[6] = test system: MCF7; test: Antiproliferative activity against human MCF7 cells after 72 hrs by MTT assay; type: functional, cell-based; details: MCF7, 72 h
[7] = test system: MDA-MB-231; test: Antiproliferative activity against human MDA-MB-231 cells after 72 hrs by MTT assay; type: functional, cell-based; details: MDA-MB-231, 72 h
[8] = test system: HCC827; test: Antiproliferative activity against human HCC827 cells after 72 hrs by MTT assay; type: functional, cell-based; details: HCC827, 72 h
[9] = test system: HeLa; test: Antiproliferative activity against human HeLa cells after 72 hrs by MTT assay; type: functional, cell-based
[10] = test system: K562; test: Antiproliferative activity against human K562 cells after 72 hrs by MTT assay; type: functional, cell-based; details: K562, 72 h
[11] = test system: U-937; test: Antiproliferative activity against human U937 cells after 72 hrs by MTT assay; type: functional, cell-based; details: U-937, 72 h
[12] = test system: MDA-MB-231; test: Antiproliferative activity against human MDA-MB-231 cells after 5 days by MTT assay; type: functional, cell-based; details: MDA-MB-231, 120 h
[13] = test system: MCF-10A; test: Antiproliferative activity against human MCF10A cells after 72 hrs by MTT assay; type: cell-based
[14] = Safety index, ratio of compound IC50 to SAHA IC50 for human MCF10A cells; type: ADME, cell-based, MCF-10A; details: read-out: Ratio IC50
[15] = test system: Raji; test: Antiproliferative activity against human Raji cells after 3 days by MTT assay; type: functional, cell-based; details: 72 h
[16] = test system: HCC1937; test: Antiproliferative activity against human HCC1937 cells after 3 days by MTT assay; type: functional, cell-based; details: HCC1937, 72 h
[17] = test system: Raji; test: Potency index, ratio of SAHA IC50 to compound IC50 for human Raji cells; type: functional
[18] = test system: MDA-MB-231; test: Induction of apoptosis in human MDA-MB-231 cells assessed as early apoptotic cells at 2.5 uM after 48 hrs by Annexin V-FITC/propidium iodide staining based flow cytometry (reference value: 1.27%); type: functional
[19] = test system: MDA-MB-231; test: Induction of apoptosis in human MDA-MB-231 cells assessed as late apoptotic cells at 2.5 uM after 48 hrs by Annexin V-FITC/propidium iodide staining based flow cytometry (reference value: 3.82%); type: functional
[20] = test system: MDA-MB-231; test: Induction of apoptosis in human MDA-MB-231 cells assessed as necrotic cells at 2.5 uM after 48 hrs by Annexin V-FITC/propidium iodide staining based flow cytometry (reference value: 0.024%); type: functional
[21] = test system: MDA-MB-231; test: Induction of apoptosis in human MDA-MB-231 cells assessed as viable cells at 2.5 uM after 48 hrs by Annexin V-FITC/propidium iodide staining based flow cytometry (reference value: 94.9%); type: functional; details: MDA-MB-231, 48 h, read-out: Activity
[22] = test system: MDA-MB-231; test: Induction of apoptosis in human MDA-MB-231 cells assessed as early apoptotic cells at 5 uM after 48 hrs by Annexin V-FITC/propidium iodide staining based flow cytometry (reference value: 1.27%); type: functional
[23] = test system: MDA-MB-231; test: Induction of apoptosis in human MDA-MB-231 cells assessed as late apoptotic cells at 5 uM after 48 hrs by Annexin V-FITC/propidium iodide staining based flow cytometry (reference value: 3.82%); type: functional
[24] = test system: MDA-MB-231; test: Induction of apoptosis in human MDA-MB-231 cells assessed as necrotic cells at 5 uM after 48 hrs by Annexin V-FITC/propidium iodide staining based flow cytometry (reference value: 0.024%); type: functional
[25] = test system: MDA-MB-231; test: Induction of apoptosis in human MDA-MB-231 cells assessed as viable cells at 5 uM after 48 hrs by Annexin V-FITC/propidium iodide staining based flow cytometry (reference value: 94.9%); type: functional; details: MDA-MB-231, 48 h, read-out: Activity
[26] = test system: MDA-MB-231; test: Induction of apoptosis in human MDA-MB-231 cells assessed as early apoptotic cells at 10 uM after 48 hrs by Annexin V-FITC/propidium iodide staining based flow cytometry (reference value: 1.27%); type: functional
[27] = test system: MDA-MB-231; test: Induction of apoptosis in human MDA-MB-231 cells assessed as late apoptotic cells at 10 uM after 48 hrs by Annexin V-FITC/propidium iodide staining based flow cytometry (reference value: 3.82%); type: functional
[28] = test system: MDA-MB-231; test: Induction of apoptosis in human MDA-MB-231 cells assessed as necrotic cells at 10 uM after 48 hrs by Annexin V-FITC/propidium iodide staining based flow cytometry (reference value: 0.024%); type: functional
[29] = test system: MDA-MB-231; test: Induction of apoptosis in human MDA-MB-231 cells assessed as viable cells at 10 uM after 48 hrs by Annexin V-FITC/propidium iodide staining based flow cytometry (reference value: 94.9%); type: functional; details: MDA-MB-231, 48 h, read-out: Activity
[30] = test system: MDA-MB-231; test: Induction of apoptosis in human MDA-MB-231 cells after 48 hrs by Annexin V-FITC/propidium iodide staining based flow cytometry; type: functional, cell-based

Sequence of Poly [ADP-ribose] polymerase 1 (P09874 whole entry, the tested form may be a part): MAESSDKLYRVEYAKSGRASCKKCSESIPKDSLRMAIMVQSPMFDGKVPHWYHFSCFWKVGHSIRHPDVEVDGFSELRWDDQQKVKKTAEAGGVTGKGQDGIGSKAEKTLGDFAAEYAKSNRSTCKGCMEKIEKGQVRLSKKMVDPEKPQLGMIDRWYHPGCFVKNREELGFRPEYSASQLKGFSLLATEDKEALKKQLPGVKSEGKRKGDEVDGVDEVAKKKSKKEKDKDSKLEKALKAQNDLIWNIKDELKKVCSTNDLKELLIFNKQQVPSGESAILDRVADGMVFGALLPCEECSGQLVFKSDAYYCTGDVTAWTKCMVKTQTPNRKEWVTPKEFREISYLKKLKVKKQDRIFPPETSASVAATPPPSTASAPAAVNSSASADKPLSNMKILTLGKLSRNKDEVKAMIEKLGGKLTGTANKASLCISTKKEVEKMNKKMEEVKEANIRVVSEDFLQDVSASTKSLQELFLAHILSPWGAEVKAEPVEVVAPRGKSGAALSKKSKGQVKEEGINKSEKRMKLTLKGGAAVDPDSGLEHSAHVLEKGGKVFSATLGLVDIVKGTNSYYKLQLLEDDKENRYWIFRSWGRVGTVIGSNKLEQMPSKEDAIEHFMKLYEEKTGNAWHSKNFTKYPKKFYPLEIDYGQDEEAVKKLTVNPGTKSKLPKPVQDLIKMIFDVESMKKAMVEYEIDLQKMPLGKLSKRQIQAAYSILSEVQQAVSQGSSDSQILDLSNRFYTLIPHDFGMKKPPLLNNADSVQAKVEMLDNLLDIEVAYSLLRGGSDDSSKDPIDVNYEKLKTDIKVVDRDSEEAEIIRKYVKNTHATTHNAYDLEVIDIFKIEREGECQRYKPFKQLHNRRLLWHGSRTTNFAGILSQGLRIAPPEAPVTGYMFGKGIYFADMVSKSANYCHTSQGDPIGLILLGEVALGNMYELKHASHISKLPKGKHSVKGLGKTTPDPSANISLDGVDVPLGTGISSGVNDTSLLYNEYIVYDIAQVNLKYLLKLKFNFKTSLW

Row | Structure (SMILES) | IC50 [5] [µM] | IC50 [6] [µM] | IC50 [7] [µM] | IC50 [8] [µM] | IC50 [9] [µM] | IC50 [10] [µM] | IC50 [11] [µM] | IC50 [12] [µM] | IC50 [13] [µM] | IC50 [15] [µM] | IC50 [16] [µM] | also measured
1 | O=C(/C=C/c1ccc(CN2CCN(C(=O)c3cc(Cc4n[nH]c(=O)c5ccccc45)ccc3F)CC2)cc1)NO | 4.85 | 8.08 | 2.68 | 2.96 | 6.49 | 7.58 | 3.88 | 0.94 | 17.4 | 0.81 | 0.45 | IC50 [1]: 0.015 µM; IC50 [2]: 0.00253 µM; IC50 [3]: 0.0382 µM; IC50 [4]: 0.0102 µM; selectivity ratio [14]: 8.2; Ratio IC50 [17]: 12; Activity [18]: 6.01%; Activity [19]: 5.56%; Activity [20]: 0.34%; viability at 2.5 µM [21]: 88.1%; Activity [22]: 11.9%; Activity [23]: 7.2%; Activity [24]: 0.634%; viability at 5 µM [25]: 80.2%; Activity [26]: 35.2%; Activity [27]: 40.8%; Activity [28]: 1.77%; viability at 10 µM [29]: 22.3%; Activity [30]: Dose-dependent effect
2 | O=C(CCCCCCC(=O)Nc1ccccc1)NO [VORINOSTAT] | – | – | – | – | – | – | – | – | 2.11 | – | – | –
3 | O=C(c1cc(Cc2n[nH]c(=O)c3ccccc23)ccc1F)N1CCN(C(=O)C2CC2)CC1 [OLAPARIB] | > 50 | 35.2 | 39.5 | > 50 | > 50 | > 50 | 21.8 | 7.92 | > 50 | > 50 | 8.65 | –
